For the first experiment, the target named is FL-SMARCA4 (Homo sapiens, UniProt P51532). Put plainly: SMARCA4 ATPase activity assay (ADP-Glo, chicken mononucleosome substrate). The conditions noted are these: FL-SMARCA4 IC50, Table 3.2; ATPase assay, enzyme 5 nM, ATP 250 uM, chicken mononucleosome 10 nM, 30 min preincubation. For orientation: ADP-Glo turns the ADP formed in a reaction into a luminescent signal.
Chain of FL-SMARCA4 (P51532 whole entry): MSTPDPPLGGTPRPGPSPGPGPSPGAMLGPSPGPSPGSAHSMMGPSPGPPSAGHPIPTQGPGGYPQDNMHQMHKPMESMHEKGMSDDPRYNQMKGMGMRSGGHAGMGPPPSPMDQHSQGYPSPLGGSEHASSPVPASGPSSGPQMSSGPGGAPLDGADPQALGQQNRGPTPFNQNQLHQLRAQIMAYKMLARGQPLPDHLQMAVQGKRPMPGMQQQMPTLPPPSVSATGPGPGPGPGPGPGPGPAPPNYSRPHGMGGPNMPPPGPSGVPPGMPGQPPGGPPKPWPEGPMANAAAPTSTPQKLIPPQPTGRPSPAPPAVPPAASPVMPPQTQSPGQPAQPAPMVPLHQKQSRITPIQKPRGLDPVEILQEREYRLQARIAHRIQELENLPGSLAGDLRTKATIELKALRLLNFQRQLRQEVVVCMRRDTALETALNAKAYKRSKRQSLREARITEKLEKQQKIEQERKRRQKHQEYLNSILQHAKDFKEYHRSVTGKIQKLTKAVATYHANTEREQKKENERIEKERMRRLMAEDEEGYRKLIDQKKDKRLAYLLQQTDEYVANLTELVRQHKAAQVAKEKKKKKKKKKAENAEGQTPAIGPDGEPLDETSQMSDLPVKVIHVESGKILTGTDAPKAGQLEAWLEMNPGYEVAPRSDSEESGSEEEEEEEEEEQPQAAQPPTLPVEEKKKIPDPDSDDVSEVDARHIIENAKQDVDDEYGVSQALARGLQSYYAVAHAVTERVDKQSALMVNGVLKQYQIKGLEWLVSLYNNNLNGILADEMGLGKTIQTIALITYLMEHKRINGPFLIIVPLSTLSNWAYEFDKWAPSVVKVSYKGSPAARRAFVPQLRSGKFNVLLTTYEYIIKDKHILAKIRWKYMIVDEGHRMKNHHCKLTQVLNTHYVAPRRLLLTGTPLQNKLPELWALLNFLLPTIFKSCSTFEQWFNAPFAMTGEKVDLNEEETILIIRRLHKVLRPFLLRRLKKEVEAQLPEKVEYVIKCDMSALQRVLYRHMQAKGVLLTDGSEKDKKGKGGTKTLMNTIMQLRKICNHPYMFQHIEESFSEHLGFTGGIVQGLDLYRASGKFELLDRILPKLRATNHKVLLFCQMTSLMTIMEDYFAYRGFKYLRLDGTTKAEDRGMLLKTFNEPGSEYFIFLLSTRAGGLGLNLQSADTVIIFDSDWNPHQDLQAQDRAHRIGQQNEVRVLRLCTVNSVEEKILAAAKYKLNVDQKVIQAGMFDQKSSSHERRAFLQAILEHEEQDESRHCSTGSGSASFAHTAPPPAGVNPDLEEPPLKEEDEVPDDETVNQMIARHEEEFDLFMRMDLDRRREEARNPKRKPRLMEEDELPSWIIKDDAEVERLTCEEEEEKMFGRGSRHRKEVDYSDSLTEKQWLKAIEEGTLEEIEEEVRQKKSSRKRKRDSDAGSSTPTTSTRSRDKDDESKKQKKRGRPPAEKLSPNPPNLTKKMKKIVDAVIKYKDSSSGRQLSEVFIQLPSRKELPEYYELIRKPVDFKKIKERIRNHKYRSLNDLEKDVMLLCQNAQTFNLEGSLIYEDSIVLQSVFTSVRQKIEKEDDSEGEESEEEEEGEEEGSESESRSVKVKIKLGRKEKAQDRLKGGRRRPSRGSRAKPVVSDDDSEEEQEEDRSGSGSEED
The term IC50 denotes the midpoint of a concentration-inhibition curve. A low value points to greater potency in that assay. `O=C(Nc1ccc(=O)n(CC2CC2)c1)c1cc(Cl)c(Cl)s1` [Compound 82] registered an IC50 of 28.9 µM.
Still for that read-out and setting: in the case of `Cn1c(C(=O)Nc2ccc(=O)[nH]c2)cc(Cl)c1Cl` [Compound 37] it was over 50 µM; in that of `CCn1cc(NC(=O)c2ccc(Cl)o2)ccc1=O` [Compound 20], over 50 µM.
As for `CCn1cc(NC(=O)c2cc(Cl)c(Cl)s2)cc(Cl)c1=O` [Compound 84], the IC50 came to 1.12 µM. This lies in the single-digit micromolar range.
Still for that read-out and setting: under `Nc1c(C(=O)Nc2cc(F)c(=O)n(CC(F)F)c2)sc(Cl)c1Cl` [Compound 332] stands 2.2 µM.
On the same count and under the same terms, under `Cn1c(C(=O)Nc2cc(C#N)c(=O)n(CCF)c2)cnc1Cl` [Compound 213] stands over 50 µM.
The same measure, in the same setting: under `CC(F)Cn1cc(NC(=O)c2cc(Cl)c(C(F)(F)F)s2)cc(F)c1=O` (stereo not shown) [Compound 331] stands 0.924 µM; under `CCn1cc(NC(=O)c2cc(Cl)c(Cl)s2)cc(NCCN(C)C)c1=O` [Compound 114], 14.3 µM.
`CCn1cc(NC(=O)c2cnc(NC3CCCC3)s2)ccc1=O` [Compound 216] returned an IC50 of over 50 µM.
`O=C(Nc1cc(F)c(=O)n(CC(F)(F)F)c1)c1cnc(Cl)o1` [Compound 273]: the IC50 was over 50 µM.
The same measure, in the same setting: under `N#Cc1cc(C(=O)Nc2ccc(=O)n(CC(F)(F)F)c2)sc1Cl` [Compound 197] stands 0.831 µM; under `CCn1cc(NC(=O)c2cc(Cl)n(C)c2)ccc1=O` [Compound 70], over 50 µM.
The molecule `O=C(Nc1ccc(=O)n(CCF)c1)c1cc(Cl)c(Cl)[nH]1` [Compound 157] came in with an IC50 of 11.1 µM.
The same measure, in the same setting: in the case of `CS(=O)(=O)c1cc(C(=O)Nc2cc(F)c(=O)n(CCF)c2)sc1Cl` [Compound 307] it was 3.27 µM.
With `Cc1nc(-c2cc(C(=O)Nc3ccc(=O)n(C)c3)n(C)c2)cs1` [Compound 7], the half-inhibitory concentration (IC50) is over 50 µM.
`O=C(Nc1cc(F)c(=O)n(CCF)c1)c1cnc(NC2CCCC2)s1` [Compound 219] came in with an IC50 of over 50 µM.
The same measure, in the same setting: in the case of `CCn1cc(NC(=O)c2nc(-c3ccc(OC)cc3)oc2C)ccc1=O` [Compound 3] it was over 50 µM; in that of `Cn1nc(C(=O)Nc2cc(F)c(=O)n(CCF)c2)cc1C#N` [Compound 244], over 50 µM; in that of `N#Cc1[nH]c(C(=O)Nc2ccc(=O)n(CC(F)F)c2)cc1Cl` [Compound 294], 0.387 µM.
For the molecule `CCCn1c(C(=O)Nc2ccc(=O)n(CC)c2)cc(Cl)c1Cl` [Compound 59], the IC50 was over 50 µM.
Same read-out and setting: in the case of `CCn1cc(NC(=O)c2cc(Cl)c(Cl)n2CCF)ccc1=O` [Compound 60] it was 34.7 µM; in that of `O=C(Nc1cc(NCCN2CCCC2)c(=O)n(CCF)c1)c1cc(Cl)c(Cl)s1` [Compound 261], 24.4 µM.
On the same count and under the same terms, in the case of `CCn1cc(NC(=O)c2csc(Cl)n2)ccc1=O` [Compound 147] it was over 50 µM.

The experiment is the same for the next values; noted with them: FL-SMARCA4 IC>50, Table 3c.2; ATPase assay, enzyme 5 nM, ATP 250 uM, chicken mononucleosome 10 nM, 30 min preincubation.
In turn, `O=C(Nc1cc(F)c(=O)n(CC(F)F)c1)c1nnc(Cl)o1` [Compound 1c] displayed a half-inhibitory concentration (IC50) of over 50 µM.
Still for that read-out and setting: in the case of `O=C(Nc1cc(F)c(=O)n(CC(F)F)c1)c1cc2cc(-c3ccncc3)ccc2s1` [Compound 84c] it was 28.9 µM.
The same measure, in the same setting: under `Cn1cnc(-c2cc(NC(=O)c3sc(C(F)(F)F)cc3Cl)cn(CC(F)F)c2=O)c1` [Compound 27c] stands over 50 µM; under `O=C(Nc1cc(F)c(=O)n(CC(F)F)c1)c1cc(C2CN(c3ccncc3)C2)c(Cl)s1` [Compound 77c], 30.5 µM; under `O=C1CC(C#Cc2cc(C(=O)Nc3cc(F)c(=O)n(CC(F)F)c3)sc2Cl)CCN1` (stereo not shown) [Compound 105c], 0.172 µM.
The same measure, in the same setting: under `CN(C)CCc1cc(NC(=O)c2cc(F)c(Cl)s2)cn(CC(F)F)c1=O` [Compound 17c] stands over 50 µM.

The target of another experiment is T1, FL-SMARCA2 (full-length human SMARCA2 isoform 1) (Homo sapiens, UniProt P51531).
T1 construct: FLAG tag (YKDDDDK) (C); made in house; host or cells: Sf21 insect cells (baculovirus, pFastBacI)
T1 sequence (P51531 with tags, fused parts or gaps): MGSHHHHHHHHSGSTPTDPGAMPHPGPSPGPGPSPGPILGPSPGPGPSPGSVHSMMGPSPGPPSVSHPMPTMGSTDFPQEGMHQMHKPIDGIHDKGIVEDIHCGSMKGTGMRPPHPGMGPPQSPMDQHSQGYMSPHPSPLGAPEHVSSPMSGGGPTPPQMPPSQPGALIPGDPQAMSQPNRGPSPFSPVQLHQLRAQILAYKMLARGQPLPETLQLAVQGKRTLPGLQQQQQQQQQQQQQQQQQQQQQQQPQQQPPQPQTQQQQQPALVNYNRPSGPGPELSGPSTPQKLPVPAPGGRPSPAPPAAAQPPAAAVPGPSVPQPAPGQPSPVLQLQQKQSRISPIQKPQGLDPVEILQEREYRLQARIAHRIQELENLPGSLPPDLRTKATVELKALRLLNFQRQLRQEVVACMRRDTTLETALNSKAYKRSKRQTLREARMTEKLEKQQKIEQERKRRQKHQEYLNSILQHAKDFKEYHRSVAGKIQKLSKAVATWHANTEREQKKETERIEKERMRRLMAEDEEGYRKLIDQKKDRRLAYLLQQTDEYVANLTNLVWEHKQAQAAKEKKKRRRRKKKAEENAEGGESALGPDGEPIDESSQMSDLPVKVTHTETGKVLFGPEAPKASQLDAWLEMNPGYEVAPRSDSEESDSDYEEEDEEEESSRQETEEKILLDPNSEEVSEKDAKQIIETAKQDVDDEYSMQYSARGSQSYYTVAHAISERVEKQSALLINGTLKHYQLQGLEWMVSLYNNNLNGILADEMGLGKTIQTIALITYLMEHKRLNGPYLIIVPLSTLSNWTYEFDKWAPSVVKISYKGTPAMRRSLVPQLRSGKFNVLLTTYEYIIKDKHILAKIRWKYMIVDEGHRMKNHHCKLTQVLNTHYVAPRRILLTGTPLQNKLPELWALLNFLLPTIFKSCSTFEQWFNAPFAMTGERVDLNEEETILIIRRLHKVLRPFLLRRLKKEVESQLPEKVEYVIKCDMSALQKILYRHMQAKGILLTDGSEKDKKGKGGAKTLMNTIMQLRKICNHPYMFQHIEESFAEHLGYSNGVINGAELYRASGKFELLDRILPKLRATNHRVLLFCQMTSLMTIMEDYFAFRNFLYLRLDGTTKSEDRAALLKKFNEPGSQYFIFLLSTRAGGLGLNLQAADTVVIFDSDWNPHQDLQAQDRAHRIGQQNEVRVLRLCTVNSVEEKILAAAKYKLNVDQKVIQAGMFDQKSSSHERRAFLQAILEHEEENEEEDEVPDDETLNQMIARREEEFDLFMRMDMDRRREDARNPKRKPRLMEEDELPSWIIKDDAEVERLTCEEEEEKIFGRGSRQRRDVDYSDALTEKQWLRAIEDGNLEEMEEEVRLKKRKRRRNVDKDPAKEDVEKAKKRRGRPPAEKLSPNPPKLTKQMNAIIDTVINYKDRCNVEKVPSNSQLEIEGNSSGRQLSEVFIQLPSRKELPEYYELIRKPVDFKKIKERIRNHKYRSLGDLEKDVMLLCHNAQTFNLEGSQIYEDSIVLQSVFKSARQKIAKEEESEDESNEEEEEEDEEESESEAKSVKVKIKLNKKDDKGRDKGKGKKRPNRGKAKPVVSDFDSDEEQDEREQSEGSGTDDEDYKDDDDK
Put plainly: SMARCA2 ATPase activity assay (ADP-Glo, chicken mononucleosome substrate). Conditions: Table 3c.1; ATPase assay, enzyme 5 nM, ATP 250 uM, chicken mononucleosome 10 nM, 30 min preincubation. The experiment is classed as biochemical.
Regarding `O=C(Nc1cc(F)c(=O)n(CC(F)F)c1)c1nnc(Cl)o1` [Compound 1c], the half-maximal inhibitory concentration (IC50) was 0.402 µM.
Still for that read-out and setting: in the case of `O=C(Nc1cc(F)c(=O)n(CC(F)F)c1)c1cc2cc(-c3ccncc3)ccc2s1` [Compound 84c] it was 1.85 µM; in that of `Cn1cnc(-c2cc(NC(=O)c3sc(C(F)(F)F)cc3Cl)cn(CC(F)F)c2=O)c1` [Compound 27c], over 50 µM; in that of `O=C(Nc1cc(F)c(=O)n(CC(F)F)c1)c1cc(C2CN(c3ccncc3)C2)c(Cl)s1` [Compound 77c], 6.56 µM.
Still for that read-out and setting: in the case of `O=C1CC(C#Cc2cc(C(=O)Nc3cc(F)c(=O)n(CC(F)F)c3)sc2Cl)CCN1` (stereo not shown) [Compound 105c] it was 0.0407 µM; in that of `CN(C)CCc1cc(NC(=O)c2cc(F)c(Cl)s2)cn(CC(F)F)c1=O` [Compound 17c], over 50 µM.

The experiment is the same for the next values; noted with them: Table 3.1; ATPase assay, enzyme 5 nM, ATP 250 uM, chicken mononucleosome 10 nM, 30 min preincubation.
The molecule `O=C(Nc1ccc(=O)n(CC2CC2)c1)c1cc(Cl)c(Cl)s1` [Compound 82] had an IC50 of 14.8 µM.
Same read-out and setting: in the case of `Cn1c(C(=O)Nc2ccc(=O)[nH]c2)cc(Cl)c1Cl` [Compound 37] it was over 50 µM.
Still for that read-out and setting: under `CCn1cc(NC(=O)c2ccc(Cl)o2)ccc1=O` [Compound 20] stands over 50 µM; under `CCn1cc(NC(=O)c2cc(Cl)c(Cl)s2)cc(Cl)c1=O` [Compound 84], 0.197 µM; under `Nc1c(C(=O)Nc2cc(F)c(=O)n(CC(F)F)c2)sc(Cl)c1Cl` [Compound 332], 0.331 µM.
`Cn1c(C(=O)Nc2cc(C#N)c(=O)n(CCF)c2)cnc1Cl` [Compound 213] gave an IC50 of 17.9 µM.
Same read-out and setting: in the case of `CC(F)Cn1cc(NC(=O)c2cc(Cl)c(C(F)(F)F)s2)cc(F)c1=O` (stereo not shown) [Compound 331] it was 0.172 µM.
Same read-out and setting: in the case of `CCn1cc(NC(=O)c2cc(Cl)c(Cl)s2)cc(NCCN(C)C)c1=O` [Compound 114] it was 9.42 µM.
Still for that read-out and setting: in the case of `CCn1cc(NC(=O)c2cnc(NC3CCCC3)s2)ccc1=O` [Compound 216] it was over 50 µM.
For `O=C(Nc1cc(F)c(=O)n(CC(F)(F)F)c1)c1cnc(Cl)o1` [Compound 273], the IC50 was over 50 µM.
Still for that read-out and setting: in the case of `N#Cc1cc(C(=O)Nc2ccc(=O)n(CC(F)(F)F)c2)sc1Cl` [Compound 197] it was 0.281 µM.
The same measure, in the same setting: under `CCn1cc(NC(=O)c2cc(Cl)n(C)c2)ccc1=O` [Compound 70] stands 16.7 µM; under `O=C(Nc1ccc(=O)n(CCF)c1)c1cc(Cl)c(Cl)[nH]1` [Compound 157], 1.5 µM.
The same measure, in the same setting: in the case of `CS(=O)(=O)c1cc(C(=O)Nc2cc(F)c(=O)n(CCF)c2)sc1Cl` [Compound 307] it was 0.94 µM.
`Cc1nc(-c2cc(C(=O)Nc3ccc(=O)n(C)c3)n(C)c2)cs1` [Compound 7] displayed a 50% inhibitory concentration (IC50) of over 50 µM.
Same read-out and setting: in the case of `O=C(Nc1cc(F)c(=O)n(CCF)c1)c1cnc(NC2CCCC2)s1` [Compound 219] it was over 50 µM.
Same read-out and setting: in the case of `CCn1cc(NC(=O)c2nc(-c3ccc(OC)cc3)oc2C)ccc1=O` [Compound 3] it was over 50 µM.
For the molecule `Cn1nc(C(=O)Nc2cc(F)c(=O)n(CCF)c2)cc1C#N` [Compound 244], the concentration for half-maximal inhibition (IC50) was over 50 µM.
The molecule `N#Cc1[nH]c(C(=O)Nc2ccc(=O)n(CC(F)F)c2)cc1Cl` [Compound 294] yielded an IC50 of 0.117 µM.
On the same count and under the same terms, under `CCCn1c(C(=O)Nc2ccc(=O)n(CC)c2)cc(Cl)c1Cl` [Compound 59] stands over 50 µM; under `CCn1cc(NC(=O)c2cc(Cl)c(Cl)n2CCF)ccc1=O` [Compound 60], 16.7 µM; under `O=C(Nc1cc(NCCN2CCCC2)c(=O)n(CCF)c1)c1cc(Cl)c(Cl)s1` [Compound 261], 7.37 µM.
Same read-out and setting: in the case of `CCn1cc(NC(=O)c2csc(Cl)n2)ccc1=O` [Compound 147] it was 17.1 µM.

(Values after US20220356174A1, “PYRIDIN-2-ONE COMPOUNDS USEFUL AS SMARCA2 ANTAGONISTS” (Epizyme, Inc., priority 2018, published 2022).)
